“And” between values parts separate entries of the source, which are not always exact repeats. Identical values can stand only once.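 A five-concentration, 48-hour dose response in 96-well plates underlies each endpoint, interpolated linearly between surrounding concentrations. Here, GI50 denotes the concentration required for 50% inhibition of growth. TGI marks complete inhibition of growth.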
Tests used:
Test in all cases: DTP human tumour cell line panel, 48 h
[1] = system: SK-MEL-28 melanoma
[2] = system: BT-549 breast
[3] = system: MDA-MB-231 breast
[4] = system: SN12C renal
[5] = system: COLO 205 colon
[6] = system: HOP-92 NSCLC
[7] = system: SF-539 CNS
[8] = system: SNB-19 CNS
[9] = system: IGROV1 ovarian
[10] = system: 786-0 renal
[11] = system: SR leukemia
[12] = system: NCI-H226 lung

Row | SMILES | TGI [1] | TGI [2] | TGI [3] | TGI [4] | TGI [5] | TGI [6] | TGI [7] | TGI [8] | TGI [9] | TGI [10] | TGI [11] | TGI [12] | GI50 [1] | GI50 [3] | GI50 [5] | GI50 [11] | GI50 [8] | GI50 [9]
1 | C=CCN(CC=C)Cn1c(=S)sc2ccccc21 | > 100 µM | > 100 µM | > 100 µM | > 100 µM | > 100 µM | > 100 µM | > 100 µM | > 100 µM | > 100 µM | > 100 µM | – | – | – | – | – | – | – | –
2 | COc1ccc(Nc2c(C#N)c3n(c4ccccc24)c2ccccc2[n+]3C)cc1OC | 17.9 µM | 42.6 µM | 8.25 µM | – | 12 µM | > 34.2 µM | 6.88 µM | 32.4 µM | 17.8 µM | 8.77 µM | > 100 µM | 10.4 µM | – | – | – | – | – | –
3 | O=c1c2ccccc2[nH]c(=S)n1-c1ccc(N=Nc2cccc3c(O)cccc23)cc1 | > 100 µM | > 100 µM | > 100 µM | > 100 µM | > 100 µM | > 100 µM | > 100 µM | > 100 µM | > 100 µM | > 100 µM | > 100 µM | > 100 µM | – | – | – | – | – | –
4 | CC[C@@H]1CC[C@@H]2[C@H](CC[C@]3(C)[C@@H](O)CC[C@@H]23)[C@H]1C(=O)O | > 100 µM | > 100 µM | > 100 µM | > 100 µM | > 100 µM | > 100 µM | > 100 µM | > 100 µM | > 100 µM | > 100 µM | – | > 100 µM | – | – | – | – | – | –
5 | COc1ccc(-c2c(C#N)c(S)n(C3OC(COC(C)=O)C(OC(C)=O)C(OC(C)=O)C3OC(C)=O)c(=O)c2C#N)cc1 (stereo not drawn) | > 100 µM and 37.3 µM | 74.4 µM and 79 µM | 83.5 µM and > 100 µM | > 100 µM | > 100 µM | 67 µM and 53.5 µM | > 100 µM | > 100 µM | > 100 µM | > 100 µM and 80.9 µM | > 100 µM and 59.3 µM | > 100 µM | > 100 µM and 20.8 µM | 21.7 µM and 55 µM | > 100 µM and 40.7 µM | 3.43 µM and 17.9 µM | 34.1 µM and 75.3 µM | > 100 µM and 49.7 µM
6 | CC1(C)CC2(C)CC1CC2O (stereo not drawn) | > 100 µM | > 100 µM | > 100 µM | > 100 µM | > 100 µM | – | > 100 µM | > 100 µM | > 100 µM | > 100 µM | > 100 µM | > 100 µM | – | – | – | – | – | –
7 | COc1ncc(C=C(C#N)C#N)c(OC)n1 | > 100 µM | > 100 µM | > 100 µM | 74.8 µM | > 100 µM | > 100 µM | > 100 µM | > 100 µM | > 100 µM | 42.4 µM | 53.5 µM | > 100 µM | – | – | – | – | – | –
8 | Cc1cc2c(c(C(=O)NCCC(=O)O)c1)Oc1c(cc(C)cc1C(=O)NCCC(=O)O)S2 | > 100 µM | > 100 µM | > 100 µM | > 100 µM | > 100 µM | > 100 µM | > 100 µM | > 100 µM | > 100 µM | > 100 µM | > 100 µM | > 100 µM | – | – | – | – | – | –
9 | CCN(CC)CCOC(c1cc(OC)ccc1OC)c1ccc2n1-c1ccccc1OC2 (stereo not drawn) | 29 µM | 25.2 µM | 5.46 µM | 7.69 µM | 17.9 µM | 9.37 µM | – | 31.2 µM | 19.7 µM | 36.9 µM | – | 14.6 µM | – | – | – | – | – | –
10 | Cc1sc2nc3n(c(=O)c2c1C)N=CN(c1ccccc1)C3 | > 100 µM | > 100 µM | > 100 µM | > 100 µM | > 100 µM | 79.8 µM | – | > 100 µM | > 100 µM | 46.5 µM | > 100 µM | > 100 µM | – | – | – | – | – | –
11 | O=c1c2c3ccccc3[nH]c2c2cccc3c2n1CCC3 | > 100 µM | 91 µM | > 100 µM | > 100 µM | > 100 µM | > 100 µM | > 100 µM | > 100 µM | > 100 µM | > 100 µM | 67.5 µM | > 100 µM | – | – | – | – | – | –
12 | CCOC(=O)c1cc(C2(O)CCN(Cc3ccccc3)C2=O)c(-c2cc(C)no2)[nH]1 (stereo not drawn) | > 100 µM | > 100 µM | > 100 µM | > 100 µM | > 100 µM | – | > 100 µM | > 100 µM | > 100 µM | > 100 µM | > 100 µM | > 100 µM | – | – | – | – | – | –
13 | Oc1ccccc1C(c1cc2c(cc1O)OCO2)N1CCOCC1 (stereo not drawn) | 38.5 µM | 30.9 µM | 36.1 µM | 34.3 µM | 34.8 µM | 34.1 µM | 39.2 µM | 37.2 µM | 35.7 µM | 22.6 µM | 24.6 µM | > 100 µM | – | – | – | – | – | –
14 | Clc1nc(Cl)nc(NC23CC4CC(CC(C4)C2)C3)n1 | 36.8 µM | 35.6 µM | 36.7 µM | 35.2 µM | 35.5 µM | 35.5 µM | 35 µM | 40.3 µM | 28.3 µM | 31.2 µM | 47.7 µM | 44.2 µM | – | – | – | – | – | –
15 | N#Cc1c(N)[nH]c(=S)c(C#N)c1-c1cccc(Cl)c1 | > 100 µM | > 100 µM | > 100 µM | 56.3 µM | 40.9 µM | > 100 µM | > 100 µM | > 100 µM | > 100 µM | 34.2 µM | 40.6 µM | > 100 µM | – | – | – | – | – | –
16 | Cc1ccc(N=Nc2c3c(c(O)c4ccccc24)CCC(C)(C)O3)cc1 | 42.1 µM | 58.7 µM | > 100 µM | 28.5 µM | 62.8 µM | > 100 µM | > 100 µM | 42.7 µM | > 100 µM | > 100 µM | 38.8 µM | > 100 µM | – | – | – | – | – | –
17 | O=C(/C(=C(/Br)I)c1ccccc1)c1ccccc1 | – | 54.3 µM | 60.1 µM | 49.9 µM | 36.5 µM | 35.6 µM | 37.7 µM | > 100 µM | > 100 µM | 39.5 µM | > 100 µM | 40.4 µM | – | – | – | – | – | –
18 | CC(C)(C)OC(=O)NCCCCC(NC(=O)OCc1ccccc1)C(N)=O (stereo not drawn) | > 100 µM | > 100 µM | > 100 µM | > 100 µM | > 100 µM | – | > 100 µM | > 100 µM | > 100 µM | > 100 µM | > 100 µM | > 100 µM | – | – | – | – | – | –
19 | Cc1c(S(=O)(=O)c2ccccc2)c(N)n(Cc2ccccc2)c1C | > 100 µM | > 100 µM | > 100 µM | > 100 µM | > 100 µM | > 100 µM | > 100 µM | > 100 µM | > 100 µM | > 100 µM | > 100 µM | > 100 µM | – | – | – | – | – | –

— PubChem BioAssay (NCI)
